SMILES strings stand for the structures. Where two headings read alike, the source gives them in different places.

Results on 9 molecules are retold here after patent US5773239A, “Mannosidase inhibitors, process for their preparation and their use as therapeutic agents” (Mount Sinai Hospital Corporation., priority 1995, dated 1998).

The test system of one experiment is bone marrow cells. As to the kind of experiment: Bone marrow cell proliferation assay. The experiment is classed as in vivo, C57B1/6J mice. The note with it: 10 ug/injection i.p. twice daily, four days; mean +/- S.E. of 4 experiments. On the procedure: Pathogen-free C57B1/6J mice, 8-14 weeks old were maintained according to NIH ethical guidelines. Groups of 2-3 mice received intraperitoneal injections of the PBS, SW or designated analog twice daily for 4 days. […] Eighteen hours after the last SW injection, mice were sacrificed and BM cells were harvested. Marrow cell suspensions were prepared under sterile conditions using femurs and tibias of both legs from each donor. Bone marrow (BM) cells were flushed from the marrow cavities with ice-cold RPMI 1640, washed and resuspended at desired concentrations in RPMI-1640 supplemented with 5% FCS, penicillin (100 U/ml) and streptomycin (100 μg/ml). Cell viability was monitored by staining with trypan blue. The ability of the analogues to stimulate BM proliferation was measured by two methods. First, cellularity was determined by directly counting BM cells after they were flushed from the tibias and femurs. Second, enhancement in proliferation was assessed by the increase in the proportion of BM progenitor cells present in the BM preparations as measured by colony formation in soft agar (CFU). BM cells were processed according to the procedures of the GIBCO-BRL Mouse Bone Marrow Stem Cell Proliferation Kit, which employs suspensions of mononuclear cells in a semi-solid methylcellulose medium containing FCS. 2-mercaptoethanol and the growth factors, interleukin-3 (IL-3) (75 U/ml) and erythropoietin (20 U/ml). The plates were incubated for 10-14 days at 37° C. in a humidified atmosphere of 5% CO2 and 95% air, and colonies consisting of at least 40 cells were enumerated using an inverted microscope. The potential colonies that form in the semi-solid medium are the granulocyte, erythrocyte, monocyte, megakaryocyte (ie. CFU-GEMM); the granulocyte, macrophage (ie. CFU-GM), and the burst forming unit-erythroid(ie BFUe).
Mice were given twice daily intraperitoneal injections of PBS, SW or the analogues at 10 ug/injection. After four days of injections, BM cells were flushed from the femurs and tibias and counted. CFUs growing in soft agar consisting of at least 40 cells were enumerated. The results are the mean +/-S.E. of 4 experiments.

The test system of the next experiment is MDAY-D2 tumor cells. As to the kind of experiment: L-PHA toxicity assay (inhibition of oligosaccharide processing in cells). Format: cell-based, mouse. The note with it: for IC50 for inhibition of Golgi oligosaccharide processing, higher / activity as inhibitors of Golgi oligosaccharide processing in viable MDAY-D2 tumor cells: compared to SW; for IC50: Mus musculus, read-out: IC50 for Inhibition of L-PHA Toxicity. Here is the method:
MDAY-D2 tumor cells were inoculated into 96 well micro-test plates at 2×10^4 cells/well, and containing serial dilutions of SW or SW analogues in MEM plus 10% FCS. The cells were cultured for 18-20 hr, followed by the addition of L-PHA at 25 μg/ml for an additional 24 hr. Cell proliferation was measured by adding 0.5 μCi/well of ^3 H-thymidine for 3-4 hr, harvesting onto glass fibre disks using a Titertek harvester and the disks were counted in a liquid scintillation counter. The apparent IC50 values for SW and the analogues are the drug concentrations showing 50% protection from L-PHA toxicity; that is 50% ^3 H-thymidine incorporated compared with cells grown in the absence of L-PHA. In experiments using the esterase inhibitor diethyl p-nitrophenyl phosphate, the compound was added to MDAY-D2 cells 4 hr prior to the α-mannosidase inhibitors and was present through-out the experiment.

In another experiment the target is T1, Jack Bean α-mannosidase (Canavalia ensiformis, UniProt C0HJB3).
T1 construct: purchased Sigma
T1 sequence (C0HJB3 1-981): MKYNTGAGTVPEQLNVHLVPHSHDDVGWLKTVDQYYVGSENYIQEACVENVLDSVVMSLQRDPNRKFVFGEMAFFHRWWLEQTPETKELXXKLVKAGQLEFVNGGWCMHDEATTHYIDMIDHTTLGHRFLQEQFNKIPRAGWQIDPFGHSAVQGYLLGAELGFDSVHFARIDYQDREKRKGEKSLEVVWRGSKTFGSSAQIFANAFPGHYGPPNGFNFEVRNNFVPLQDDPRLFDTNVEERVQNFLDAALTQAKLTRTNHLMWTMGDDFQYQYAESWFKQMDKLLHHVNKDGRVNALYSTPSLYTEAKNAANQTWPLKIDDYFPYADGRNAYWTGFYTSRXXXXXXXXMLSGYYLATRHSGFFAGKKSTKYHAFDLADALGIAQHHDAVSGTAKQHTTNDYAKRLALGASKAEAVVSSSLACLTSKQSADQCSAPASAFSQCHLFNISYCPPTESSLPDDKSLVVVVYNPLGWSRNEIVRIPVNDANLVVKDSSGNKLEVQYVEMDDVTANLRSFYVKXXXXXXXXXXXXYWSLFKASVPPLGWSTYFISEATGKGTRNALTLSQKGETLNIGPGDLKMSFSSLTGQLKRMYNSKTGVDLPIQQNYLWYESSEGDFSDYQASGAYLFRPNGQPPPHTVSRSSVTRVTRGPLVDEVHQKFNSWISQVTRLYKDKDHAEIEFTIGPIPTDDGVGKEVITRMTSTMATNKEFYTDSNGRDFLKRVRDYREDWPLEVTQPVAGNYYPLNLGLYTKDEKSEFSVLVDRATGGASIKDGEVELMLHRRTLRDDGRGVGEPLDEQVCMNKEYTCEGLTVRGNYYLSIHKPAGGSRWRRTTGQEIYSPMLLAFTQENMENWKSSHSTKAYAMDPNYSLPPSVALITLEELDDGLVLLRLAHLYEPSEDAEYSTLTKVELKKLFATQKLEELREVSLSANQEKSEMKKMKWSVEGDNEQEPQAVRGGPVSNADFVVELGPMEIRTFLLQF
As to the kind of experiment: Inhibition of Jack Bean α-mannosidase. The experiment is classed as biochemical. On the procedure:
Jack Bean α-mannosidase (Sigma, 38 U/ml) was diluted 1/800, 10 μl was added to each well and the plates were incubated for 20 min at 37° C. The reaction was stopped by the addition of 150 μl of 0.5M sodium carbonate and formation of p-nitrophenol was measured with a plate set at 405 nm.

The mark [1] stands for this setting: MDAY-D2 tumor cells, L-PHA 25 μg/ml, 50% protection by 3H-thymidine incorporation.
Setting [2] is: p-nitrophenyl α-D-mannopyranoside, pH 5.0, 20 min 37° C., read-out: IC50 for inhibition of J.B. α-mannosidase.

In the case of `O=C(OC1CN2CCCC(O)C2C1O)c1ccccc1` (stereo not drawn) [2-benzoyloxy-SW], in the experiment with bone marrow cells, the BM cellularity is 5.77 ± 0.00 cells × 10^7. The molecule also came in with a CFU in the experiment on bone marrow cells of 421 ± 44 colonies/10^7 cells. The “IC50 for inhibition of Golgi oligosaccharide processing, higher” value (from here on “IC50 for inhibition”) with MDAY-D2 tumor cells (MDAY-D2 tumor cells) is on record as “at least 10 times”. The IC50 in the experiment on MDAY-D2 tumor cells (setting [1]) was found to be 1.8 µM; on Jack Bean α-mannosidase (setting [2]), 350 µM.

`CCCC(=O)OC1CN2CCCC(O)C2C1O` (stereo not drawn) [2-butanoyloxy-SW]: in the experiment with bone marrow cells, the BM cellularity worked out at 3.80 ± 0.91 cells × 10^7 and the CFU was 545 ± 59 colonies/10^7 cells. For the same molecule, in the experiment with MDAY-D2 tumor cells (setting [1]), the IC50 is 0.23 µM. Besides, the “activity as inhibitors of Golgi oligosaccharide processing in viable MDAY-D2 tumor cells” value (shortened to “activity as inhibitors”) with MDAY-D2 tumor cells is on record as “retained full activity”. For the same molecule, 123 µM corresponded to half-maximal inhibition against Jack Bean α-mannosidase (IC50). In addition, the “reduction of inhibitor activity / greater IC50 for α-mannosidase in vitro compared to SW” value at Jack Bean α-mannosidase (compared to SW) came out at 300 fold.

For `CCCCCCCC(=O)OC1CN2CCCC(O)C2C1O` (stereo not drawn) [2-octanoyloxy-SW], the CFU with bone marrow cells was 482 ± 22 colonies/10^7 cells. Besides, the values for the IC50 in the experiment with MDAY-D2 tumor cells (setting [1]) and on Jack Bean α-mannosidase (setting [2]) were 0.23 µM and 123 µM, respectively. In the experiment with MDAY-D2 tumor cells, the “activity as inhibitors” value is recorded as “retained full activity”. Further, the “reduction of inhibitor activity / greater IC50 for α-mannosidase in vitro compared to SW” value on Jack Bean α-mannosidase (compared to SW) turned out to be 300 fold.

As for `O=C(OC1CN2CCCC(O)C2C1O)c1ccc([N+](=O)[O-])cc1` (stereo not drawn) [2-p-nitrobenzoyloxy-SW], in the experiment with bone marrow cells, the BM cellularity was found to be 3.60 ± 0.42 cells × 10^7 and the CFU is 380 ± 7 colonies/10^7 cells. In addition, in the experiment with MDAY-D2 tumor cells (setting [1]), the IC50 worked out at 0.23 µM. Besides, in the experiment with MDAY-D2 tumor cells, the “activity as inhibitors” value is given as “retained full activity”. Besides, the “reduction of inhibitor activity / greater IC50 for α-mannosidase in vitro compared to SW” value on Jack Bean α-mannosidase (compared to SW) stood at 300 fold. Also, the IC50 at Jack Bean α-mannosidase (setting [2]) came out at 123 µM.

Turning to `Cc1ccc(C(=O)O[C@@H]2CN3CCC[C@@H](O)[C@@H]3[C@@H]2O)cc1` [2-toluoyloxy-SW], in the experiment on bone marrow cells, the BM cellularity came to 3.40 ± 0.25 cells × 10^7 and the CFU is recorded as 384 ± 25 colonies/10^7 cells. For the same molecule, in the experiment with MDAY-D2 tumor cells (MDAY-D2 tumor cells), the “IC50 for inhibition” value was “at least 10 times”. Moreover, in the experiment on MDAY-D2 tumor cells (setting [1]), the IC50 is 3.4 µM. On Jack Bean α-mannosidase (setting [2]), the IC50 is 350 µM.

In the experiment on bone marrow cells, `OC1CN2C[C@@H](O)[C@@H](O)[C@H]2[C@H](O)C1O` (stereo partly drawn) [6,7-dihydroxy-SW] displayed a BM cellularity of 5.20 ± 0.03 cells × 10^7 and a CFU of 538 ± 5 colonies/10^7 cells. The IC50 in the experiment on MDAY-D2 tumor cells (setting [1]) was over 5 µM. Also, the “less active than SW in the Jack Bean α-mannosidase assay” value at Jack Bean α-mannosidase (compared to SW) worked out at 100 times. Further, the IC50 on Jack Bean α-mannosidase (setting [2]) came out at 50 µM.

As to `CCCCCCCCCCCCCC(=O)OC1CCCN2CC(O)C(O)C12` (stereo not drawn) [8-myristinoyloxy-SW], in the experiment on bone marrow cells, the BM cellularity came out at 4.80 ± 0.24 cells × 10^7 and the CFU is 226 ± 6 colonies/10^7 cells. Moreover, the “IC50 for inhibition” value in the experiment on MDAY-D2 tumor cells (MDAY-D2 tumor cells) is on record as “at least 10 times”. In addition, the IC50 in the experiment on MDAY-D2 tumor cells (setting [1]) is over 2.5 µM. Further, the IC50 at Jack Bean α-mannosidase (setting [2]) is over 500 µM.

In the case of `CCCCCCCCCCCCCCCC(=O)OC1CCCN2CC(O)C(O)C12` (stereo not drawn) [8-palmitoyloxy-SW], the BM cellularity in the experiment with bone marrow cells stood at 5.10 ± 0.57 cells × 10^7. This molecule also registered a CFU in the experiment with bone marrow cells of 553 ± 32 colonies/10^7 cells. The “IC50 for inhibition” value in the experiment on MDAY-D2 tumor cells (MDAY-D2 tumor cells) is reported as “at least 10 times”. The IC50 in the experiment with MDAY-D2 tumor cells (setting [1]) is over 2.5 µM; on Jack Bean α-mannosidase (setting [2]), 240 µM.

In the experiment with bone marrow cells, `O[C@H]1[C@H]2[C@H](O)CCCN2C[C@H]1O` [SW, Swainsonine, reference compound] registered a BM cellularity of 4.50 ± 0.42 cells × 10^7 and a CFU of 540 ± 34 colonies/10^7 cells. Also, the IC50 in the experiment with MDAY-D2 tumor cells (MDAY-D2, 3 h) is 0.2 µM.
